Measured values: ChEMBL document CHEMBL1201862, “PubChem BioAssay data set” (2004)
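How tested: cells in 96-well plates exposed to compound for 48 hours at five concentrations. The concentration for 50% growth inhibition is given as GI50.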 The source made the active and inactive calls. Rule as the data show it: active = GI50 up to about 1.1 µM and inactive = higher.

Experiments:
Assay in all cases: growth of human tumour cells (NCI), 48 h
CAKI-1 = test system: CAKI-1
SK-MEL-5 = test system: SK-MEL-5
BT-549 = test system: BT-549
A549 = test system: A549
SN12C = test system: SN12C
Hs-578T = test system: Hs-578T
MDA-N = test system: MDA-N
OVCAR-8 = test system: OVCAR-8
UO-31 = test system: UO-31
MDA-MB-231 = test system: MDA-MB-231
M14 = test system: M14
NCI-H460 = test system: NCI-H460
PC-3 = test system: PC-3
SK-MEL-28 = test system: SK-MEL-28
HL-60 = test system: HL-60
CCRF-CEM = test system: CCRF-CEM
RXF 393 = test system: RXF 393
MDA-MB-435 = test system: MDA-MB-435
NCI-H226 = test system: NCI-H226

Structure (SMILES) | GI50 (CAKI-1) | GI50 (SK-MEL-5) | GI50 (BT-549) | GI50 (A549) | GI50 (SN12C) | GI50 (Hs-578T) | GI50 (MDA-N) | GI50 (OVCAR-8) | GI50 (UO-31) | GI50 (MDA-MB-231) | GI50 (M14) | GI50 (NCI-H460) | GI50 (PC-3) | GI50 (SK-MEL-28) | GI50 (HL-60) | GI50 (CCRF-CEM) | GI50 (RXF 393) | GI50 (MDA-MB-435) | GI50 (NCI-H226)
Cc1ccc(S(=O)(=O)OCC(=O)O)cc1 | > 100 µM (inactive) | > 100 µM (inactive) | > 100 µM (inactive) | > 100 µM (inactive) | > 100 µM (inactive) | > 100 µM (inactive) | > 100 µM (inactive) | > 100 µM (inactive) | > 100 µM (inactive) | > 100 µM (inactive) | > 100 µM (inactive) | > 100 µM (inactive) | > 100 µM (inactive) | > 100 µM (inactive) | > 100 µM (inactive) | > 100 µM (inactive) | > 100 µM (inactive) | – | –
CCOC(=O)Cc1c(C)c2ccc(OC(C)=O)c(OC(C)=O)c2oc1=O | – | 19.5 µM (inactive) | – | 21.9 µM (inactive) | 41.8 µM (inactive) | 32.4 µM (inactive) | > 100 µM (inactive) | 18.6 µM (inactive) | 13.9 µM (inactive) | 37.1 µM (inactive) | 17.9 µM (inactive) | – | 23.3 µM (inactive) | 21.3 µM (inactive) | – | 4.09 µM (inactive) | – | 28.1 µM (inactive) | 32.7 µM (inactive)
CCC1OC(=O)CC(O)C(C)C(OC2OC(C)C(O)C(N(C)C)C2O)C(CC=O)CC(C)C(=O)/C=C/C2(C)OC2C1C (stereo unspecified) | 23.1 µM (inactive) | 7.03 µM (inactive) | 37.3 µM (inactive) | 33.8 µM (inactive) | 15.1 µM (inactive) | 27.1 µM (inactive) | 24.4 µM (inactive) | 3.19 µM (inactive) | – | 24 µM (inactive) | 18.6 µM (inactive) | 32.4 µM (inactive) | 47.9 µM (inactive) | 54.6 µM (inactive) | 23.6 µM (inactive) | 17.2 µM (inactive) | – | 27.7 µM (inactive) | > 100 µM (inactive)
CN(N)c1cc(=O)[nH]c(=O)[nH]1 | 6.22 µM (inactive) | > 100 µM (inactive) | 0.03 µM (active) | 54 µM (inactive) | > 100 µM (inactive) | 51.2 µM (inactive) | > 100 µM (inactive) | > 100 µM (inactive) | – | > 100 µM (inactive) | – | > 100 µM (inactive) | > 100 µM (inactive) | > 100 µM (inactive) | 43.4 µM (inactive) | > 100 µM (inactive) | – | – | > 100 µM (inactive)
c1cn(C23C4C5C6C4C2C6C53)cn1 (stereo unspecified) | – | > 100 µM (inactive) | > 100 µM (inactive) | > 100 µM (inactive) | > 100 µM (inactive) | > 100 µM (inactive) | > 100 µM (inactive) | > 100 µM (inactive) | – | > 100 µM (inactive) | > 100 µM (inactive) | > 100 µM (inactive) | > 100 µM (inactive) | > 100 µM (inactive) | > 100 µM (inactive) | > 100 µM (inactive) | – | > 100 µM (inactive) | > 100 µM (inactive)
Cc1c(NC(=S)N/N=C\C(=N/NC(=S)Nc2c(C)n(C)n(-c3ccccc3)c2=O)c2ccccc2)c(=O)n(-c2ccccc2)n1C | > 100 µM (inactive) | > 100 µM (inactive) | > 100 µM (inactive) | > 100 µM (inactive) | – | > 100 µM (inactive) | – | – | > 100 µM (inactive) | > 100 µM (inactive) | > 100 µM (inactive) | > 100 µM (inactive) | > 100 µM (inactive) | – | – | – | > 100 µM (inactive) | > 100 µM (inactive) | > 100 µM (inactive)
COC1=CC(=O)O/C1=C(\OC)C1OC1c1ccccc1 (stereo unspecified) | > 100 µM (inactive) | > 100 µM (inactive) | > 100 µM (inactive) | > 100 µM (inactive) | > 100 µM (inactive) | > 100 µM (inactive) | – | > 100 µM (inactive) | > 100 µM (inactive) | 74.3 µM (inactive) | > 100 µM (inactive) | > 100 µM (inactive) | > 100 µM (inactive) | > 100 µM (inactive) | 85.7 µM (inactive) | 35.2 µM (inactive) | > 100 µM (inactive) | > 100 µM (inactive) | > 100 µM (inactive)
O=[N+]([O-])/C(C(Cl)=C(Cl)Cl)=C(\NCc1ccccc1)Sc1ccccc1 | 37.3 µM (inactive) | – | 17.3 µM (inactive) | 30.2 µM (inactive) | 35.2 µM (inactive) | 15.1 µM (inactive) | 31.7 µM (inactive) | 16.9 µM (inactive) | 17.2 µM (inactive) | 40.7 µM (inactive) | 32.8 µM (inactive) | 37 µM (inactive) | 27.5 µM (inactive) | 17.3 µM (inactive) | – | 32 µM (inactive) | – | 19.4 µM (inactive) | 27.8 µM (inactive)
CN(C)CCCOC(=O)C(c1ccccc1)C1(O)CCSCC1 (stereo unspecified) | 32.7 µM (inactive) | > 100 µM (inactive) | – | > 100 µM (inactive) | > 100 µM (inactive) | > 100 µM (inactive) | > 100 µM (inactive) | > 100 µM (inactive) | > 100 µM (inactive) | > 100 µM (inactive) | > 100 µM (inactive) | > 100 µM (inactive) | > 100 µM (inactive) | > 100 µM (inactive) | > 100 µM (inactive) | > 100 µM (inactive) | > 100 µM (inactive) | > 100 µM (inactive) | 79.1 µM (inactive)
COC(=O)C(=CNC(N)=O)C(=O)OC | > 100 µM (inactive) | > 100 µM (inactive) | – | > 100 µM (inactive) | > 100 µM (inactive) | 63.4 µM (inactive) | > 100 µM (inactive) | > 100 µM (inactive) | > 100 µM (inactive) | – | > 100 µM (inactive) | > 100 µM (inactive) | > 100 µM (inactive) | > 100 µM (inactive) | – | > 100 µM (inactive) | – | > 100 µM (inactive) | –
COc1nc(C(=O)NNC(=O)c2nc(OC)c3ccccc3c2-c2ccccc2)c(-c2ccccc2)c2ccccc12 | > 100 µM (inactive) | > 100 µM (inactive) | > 100 µM (inactive) | > 100 µM (inactive) | > 100 µM (inactive) | > 100 µM (inactive) | – | > 100 µM (inactive) | > 100 µM (inactive) | > 100 µM (inactive) | > 100 µM (inactive) | – | > 100 µM (inactive) | > 100 µM (inactive) | > 100 µM (inactive) | > 100 µM (inactive) | > 100 µM (inactive) | > 100 µM (inactive) | > 100 µM (inactive)
N#C[C@H]1Nc2ccccc2[C@@H](O)C1O (stereo partly specified) | > 100 µM (inactive) | > 100 µM (inactive) | – | > 100 µM (inactive) | > 100 µM (inactive) | > 100 µM (inactive) | > 100 µM (inactive) | > 100 µM (inactive) | – | > 100 µM (inactive) | > 100 µM (inactive) | > 100 µM (inactive) | > 100 µM (inactive) | > 100 µM (inactive) | > 100 µM (inactive) | > 100 µM (inactive) | > 100 µM (inactive) | > 100 µM (inactive) | –
